One block for each compound: values may come before it.
Assays:
Leishmania donovani [1] = assay: Antileishmanial activity against Leishmania donovani MHOM/ET/67/HU3 axenic amastigotes; assay type: functional, organism-based
Leishmania donovani [2] = assay: Antileishmanial activity against Leishmania donovani MHOM/ET/67/HU3 infected in BALB/c mouse model assessed as reduction in parasitic load at 50 mg/kg, po measured after 5 days relative to control; assay type: functional; set-up: scale not given: the % may be the effect or the level left; settings: time 5 day
[3] = target: T1, Glycylpeptide N-tetradecanoyltransferase (Plasmodium falciparum, UniProt Q9U419); assay: Inhibition of recombinant N-terminal Plasmodium falciparum NMT expressed in Escherichia coli using peptide substrate preincubated for 5 mins followed by substrate addition and measured after 30 mins by scintillation proximity assay
T1 sequence (Q9U419 whole entry): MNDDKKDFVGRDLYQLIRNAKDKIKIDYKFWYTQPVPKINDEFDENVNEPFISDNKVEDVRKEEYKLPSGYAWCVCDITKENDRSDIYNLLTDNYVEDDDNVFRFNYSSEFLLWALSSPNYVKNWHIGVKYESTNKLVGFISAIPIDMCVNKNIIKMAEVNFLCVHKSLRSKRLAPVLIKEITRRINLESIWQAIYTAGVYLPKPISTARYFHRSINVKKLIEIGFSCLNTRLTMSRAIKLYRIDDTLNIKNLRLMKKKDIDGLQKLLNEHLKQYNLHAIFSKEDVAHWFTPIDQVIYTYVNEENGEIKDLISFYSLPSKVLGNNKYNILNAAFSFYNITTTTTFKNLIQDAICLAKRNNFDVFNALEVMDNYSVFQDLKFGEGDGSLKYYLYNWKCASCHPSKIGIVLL

Plasmodium falciparum [4] = assay: Antiplasmodial activity against synchronized late stage trophozoite Plasmodium falciparum 3D7 assessed as reduction in parasitemia relative to control; assay type: functional; set-up: scale not given: the % may be the effect or the level left
[5] = Inhibition of Trypanosoma brucei NMT
[6] = system: Trypanosoma brucei brucei; assay: Antitrypanosomal activity against bloodstream Trypanosoma brucei brucei s427 assessed as reduction in parasite growth measured after 72 hrs by inverted microscope based analysis; assay type: functional, organism-based; settings: s427, 72 h
Leishmania donovani [7] = assay: Antileishmanial activity against Leishmania donovani promastigote assessed as reduction in parasite growth measured after 72 hrs; assay type: functional, organism-based
[8] = Inhibition of N terminal his-6 tagged recombinant Trypanosoma brucei NMT incubated for 30 mins using biotinylated peptide substrate by scintillation counter analysis
Trypanosoma brucei [9] = assay: Antitrypanosomal activity against Trypanosoma brucei assessed as reduction in parasite growth; assay type: functional, organism-based
Plasmodium falciparum [10] = assay: Antiplasmodial activity against Plasmodium falciparum; assay type: functional, organism-based
Trypanosoma brucei [11] = assay: Antiprotozoal activity against blood stream form Trypanosoma brucei assessed as reduction in number of viable parasites measured after 72 hrs by Alamar blue staining based analysis; assay type: functional; settings: read-out: ED50 (the source's name)
[12] = Cytotoxicity against mouse RAW 264 cells by alamar blue staining based analysis; assay type: functional; settings: RAW264.7, read-out: ED50 (the source's name)
[13] = Inhibition of N terminal his-6 tagged recombinant Trypanosoma brucei NMT using CAP5.5 peptide as substrate incubated for 10 mins
Leishmania amazonensis = assay: Antileishmanial activity against Leishmania amazonensis IFLA/BR/1967/PH8 promastigote; assay type: functional, organism-based
[14] = Binding affinity to Leishmania donovani NMT assessed as apparent inhibition constant; settings: read-out: Ki(app)
Leishmania donovani [15] = assay: Antileishmanial activity against Leishmania donovani promastigotes; assay type: functional, organism-based
Leishmania donovani [16] = assay: Antileishmanial activity against Leishmania donovani amastigotes; assay type: functional, organism-based
[17] = target: T2, Glycylpeptide N-tetradecanoyltransferase 1 (Homo sapiens, UniProt P30419); assay: Inhibition of human NMT
T2 sequence (P30419 whole entry): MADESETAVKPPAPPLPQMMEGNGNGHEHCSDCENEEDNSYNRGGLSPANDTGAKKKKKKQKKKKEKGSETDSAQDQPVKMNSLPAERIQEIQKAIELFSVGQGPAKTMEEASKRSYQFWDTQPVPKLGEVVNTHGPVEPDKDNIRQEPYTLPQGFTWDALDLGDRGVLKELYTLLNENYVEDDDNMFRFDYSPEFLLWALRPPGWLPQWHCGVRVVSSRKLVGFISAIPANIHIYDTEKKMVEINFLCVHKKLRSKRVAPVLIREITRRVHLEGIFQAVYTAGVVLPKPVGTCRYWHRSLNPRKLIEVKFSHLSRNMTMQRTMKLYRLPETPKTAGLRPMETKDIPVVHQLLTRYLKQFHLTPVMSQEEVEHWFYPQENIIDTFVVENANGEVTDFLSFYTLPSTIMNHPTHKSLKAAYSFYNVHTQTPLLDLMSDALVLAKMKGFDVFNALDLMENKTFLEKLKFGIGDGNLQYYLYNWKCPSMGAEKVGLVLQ

[18] = Inhibition of Leishmania donovani NMT using 3H-myristoyl CoA as substrate preincubated for 15 mins followed by substrate addition and measured after 80 mins
[19] = Inhibition of recombinant Leishmania donovani NMT

Compound: Cc1nn(C)c(C)c1N(C(F)F)S(=O)(=O)c1c(Cl)cc(CCCC2CCN(C)CC2)cc1Cl
EC50 (Leishmania donovani [1]): 2400 nM
Activity (Leishmania donovani [2]): 52%

Compound: COc1cc(C2SCC(=O)N2Cc2ccccc2)ccc1O (centres undefined)
IC50 [5]: 22000 nM

Compound: O=C(O)C1=CC(=C(c2ccc(O)c(C(=O)O)c2)c2ccc(O)c(C(=O)O)c2)C=CC1=O [AURINTRICARBOXYLIC ACID]
IC50 [8]: 740 nM

Compound: Cc1ccc(S(=O)(=O)NC(C)C(=O)NC(C)C(=O)NC23CC4CC(CC(C4)C2)C3)cc1 (centres undefined)
IC50 (Plasmodium falciparum [10]): 3.6 µM

Compound: CC(=O)O[C@@H]1C2[C@H](N(C)C)C(O)=C(C(N)=O)C(=O)[C@@]2(O)C(O)=C2C(=O)c3c(O)cccc3C(=O)[C@@H]21 (some centres undefined)
EC50 (Trypanosoma brucei [11]): 66 µM
EC50 [12]: 1.5 mM
IC50 [13]: 250 nM

Compound: CCc1ccc(NC(=O)C[Se]C(=O)c2ccc(Cl)cc2)cc1
IC50 (Leishmania amazonensis): 7.41 µM

Compound: Cc1nn(C)c(C)c1NS(=O)(=O)c1c(Cl)cc(-c2ccnc(N3CCNCC3)c2)cc1Cl
Ki [14]: 2.5 nM
EC50 (Leishmania donovani [15]): 23 µM
EC50 (Leishmania donovani [16]): 7 µM

Compound: CCOC(=O)CN1C(=O)COc2ccccc21
IC50 [5]: 12000 nM

Compound: CCOC(=O)c1cnc2ccc(OCc3ccc(N4CCNCC4)nc3)cc2c1SCCC#N
IC50 [19]: 24 nM

Compound: Cc1cc(CN2C(=O)COc3ccccc32)no1
IC50 [5]: 2900 nM

Compound: Cc1cc(CN2C(=O)COc3c(CCCCC4CCNCC4)cccc32)no1
EC50 (Trypanosoma brucei [9]): 7 nM

The next lines start with results.

IC50 [3]: 30 µM
Compound: O=C(Nc1nc2ccccc2s1)[C@H]1CC[C@@H](NCc2ccc3ccccc3c2)CC1
Activity (Plasmodium falciparum [4]): 80%

IC50 [6]: 2.91 µM
Compound: CCOC(=O)c1c(C)nn(-c2ccc(NS(=O)(=O)c3ccc(OC)cc3)cc2)c1C
IC50 (Leishmania donovani [7]): 13.8 µM

EC50 (Trypanosoma brucei [9]): 7 nM
Compound: Cc1cc(CN2C(=O)COc3c(CCCCC4CCN(C)CC4)cccc32)no1

IC50 [17]: 100 nM
EC50 (Trypanosoma brucei [9]): 7 nM
Compound: Cc1cc(CN2C(=O)COc3c(CCCCC4CCCN(C)CC4)cccc32)no1 (centres undefined)
IC50 [5]: < 2 nM

IC50 [6]: 9.36 µM
Compound: Cc1ccc(S(=O)(=O)Nc2ccccc2Sc2ncnc3c(C)csc23)cc1
IC50 (Leishmania donovani [7]): 32.1 µM

IC50 [6]: 45 µM
Compound: Cc1onc(-c2ccccc2)c1CNS(=O)(=O)c1cnn(-c2ccccc2)c1C
IC50 (Leishmania donovani [7]): 15.7 µM

EC50 (Trypanosoma brucei [9]): 14000 nM
Compound: COc1cc(C2SCC(=O)N2Cc2ccccn2)ccc1O (centres undefined)
IC50 [5]: 270 nM

IC50 [6]: 14.7 µM
Compound: COc1ccc(Br)c(-c2nnc(-c3ccccc3NS(=O)(=O)c3ccc(Cl)cc3)o2)c1

IC50 [18]: 160 nM
Compound: c1cncc(CCNCc2cccc(-c3cccc(CN4CCc5ncsc5C4)c3)c2)c1

IC50 [3]: 53 µM
Compound: O=C(Nc1nc2cc(F)ccc2s1)[C@H]1CC[C@@H](NCc2ccc3ccccc3c2)CC1
Activity (Plasmodium falciparum [4]): 80%
